Reference: patent publication US8568762B2, “Methods for modifying the surface of an implant to provide said surface with calcium” (Biotechnology Institute, I Mas D, S.L., priority 2010, dated 2013)

How the values were obtained:
[1] = tested on: blood plasma; test: Test 4a: coagulation as a function of the volume concentration of calcium (absorbance 450 nm); type: biochemical, human; details: without surfaces; calcium in plasma between 2.5 and 45.6 mM
Protocol: Blood plasma was prepared by extracting blood from three healthy patients. A technique similar to the one described in patent EP1066838B1 was applied to obtain a Plasma Rich in Growth Factors (PRGF): the blood was centrifuged for eight minutes at 460 G; the column of plasma was then separated from the red globules and white globules by manual pipetting (unlike the protocol described in EP1066838B1, in this case, due to the criteria of volume for carrying out the experiments, the entire plasma column was selected, not merely the part richer in platelets). Both the red globules and the white globules were discarded.
For the purpose of determining the ranges of concentration of calcium ions in plasma at which coagulation is initiated, 10 μl of CaCl2.EtOH were placed in concentrations of between 28 and 2000 mM in the bottom of a multi-well plate comprising 96 wells. […] Absorbance was measured immediately in the manner described hereafter.
Immediately after the tubes were filled, absorbance (optical density) was measured with a spectrophotometer at a wavelength of 450 nm. […]
This gradual cross-linking gradually blocks the passage of the reader beam, the absorbance therefore increasing. […] It is at this point that the absorbance (optical density) values are collated so that comparisons can be made between the various samples.

[2] = ambient temperature; cited from earlier work
[3] = tested on: blood plasma; test: Test 4b: coagulation in the presence of surfaces with or without calcium (titanium tubes, absorbance 450 nm); type: biochemical, human; details: surfaces with no calcium; 50 mM NaOH or 0.9 wt. % NaCl treatment, not dried
Protocol: Blood plasma was prepared by extracting blood from three healthy patients. A technique similar to the one described in patent EP1066838B1 was applied to obtain a Plasma Rich in Growth Factors (PRGF): the blood was centrifuged for eight minutes at 460 G; the column of plasma was then separated from the red globules and white globules by manual pipetting (unlike the protocol described in EP1066838B1, in this case, due to the criteria of volume for carrying out the experiments, the entire plasma column was selected, not merely the part richer in platelets). Both the red globules and the white globules were discarded. First of all, the surfaces were prepared. For the study of the coagulation, in which the excess surface calcium was to be measured, hollow tubes were used to enable the reader beam to move longitudinally. […] They were ultrasound-washed with Triton X-100, acetone and ethanol, for 20 minutes. Eight tubes were used per concentration. The solutions were prepared. […] Immediately after the tubes were filled, absorbance (optical density) was measured with a spectrophotometer at a wavelength of 450 nm. […] This gradual cross-linking gradually blocks the passage of the reader beam, the absorbance therefore increasing. […] It is at this point that the absorbance (optical density) values are collated so that comparisons can be made between the various samples.

Row | SMILES | final degree of coagulation in volume, normalized with respect to the positive control [1] | solubility in water [2] | degree of coagulation inside titanium tubes normalized to positive control [3]
1 | [Ca+2].[Cl-].[Cl-] [CaCl2, calcium chloride] | sometimes even greater than that of the positive control | > 60 g/100 mL | 
2 | [Cl-].[Na+] [NaCl, sodium chloride] |  |  | lack of coagulation is evident
3 | [Na+].[OH-] [NaOH, sodium hydroxide] |  |  | lack of coagulation is evident
